# Where two headings read alike, the source gives them in different places.
# Assays:
# [1] = test system: T. cruzi (Sylvio X10/7A1 strain) intracellular amastigote (in Vero cells); assay: microbe, parasite or virus in culture; type: cell-based; details: for EC50: Trypanosoma cruzi, Vero; for Fold-shift (relative to WT): intracellular amastigote in Vero cells
# T. b. brucei BSF = assay: Drug sensitivity assay, T. b. brucei bloodstream forms; type: cell-based; details: for EC50: Trypanosoma brucei
# [2] = test system: L. donovani (MHOM-ET-67/L82) axenic amastigote; assay: Drug sensitivity assay, L. donovani axenic amastigotes; type: cell-based; details: Leishmania donovani, WT
# HepG2 = assay: Drug sensitivity assay, HepG2 cells; type: cell-based
# Method: Human HepG2 cells (ECACC 85011430) were cultivated at 37°C in minimal essential medium (MEM) supplemented with GlutaMax (1×, Thermo Fisher), 10% (v/v) fetal bovine serum (FBS), MEM non-essential amino acids (1×, Sigma) and in the presence of 5% CO2, as previously described ([29]). Cells were passaged twice weekly through detachment of adherent cells with trypsin/EDTA (Sigma) and subsequent dilution into fresh medium.
# The relative potency of test compounds against T. cruzi epimastigotes ([29]), T. b. brucei bloodstream forms ([41]), T. b. rhodesiense bloodstream forms ([42]), L. donovani promastigotes ([43]) and Hep G2 cells ([29]) were established as previously described. The potency of test compounds on intracellular T. cruzi (Sylvio, X10/7A1) were determined in 96-well plates as previously described ([29]).
# T. b. rhodesiense = assay: Drug sensitivity assay, T. b. rhodesiense bloodstream forms; type: cell-based; details: Trypanosoma brucei, read-out: EC50 value
# [3] = Metabolic stability in mouse liver microsomes; type: in vitro ADME; details: 1 µM, NADPH
# Method: The metabolic stability of key compounds was assessed using the protocol established by TCG
# Lifesciences (India). Briefly, mouse liver microsomes (MLM) were incubated with test
# compounds or controls (atenolol, propranolol, diclofenac and verapamil) at 1 µM. Reactions
# were initiated by the addition of NADPH and terminated by the addition of acetonitrile. […]
# [4] = DMU759 exposure in mice after oral dosing; type: in vivo; details: 50 mg/kg oral
# Method: DMU759 (50 mg/kg) was orally administered to BALB/c mice. The dose solution was prepared on the day of dosing, and the vehicle was 0.5% (w/v) hydroxypropyl methylcellulose and 0.4% […]. Blood samples (10 μl) were collected from the tail vein of each animal at defined intervals then placed into 1.2 mL cryovials containing deionized water (90 μl) and stored at −80°C until analysis. Blood levels of DMU759 in mouse blood were determined by UPLC-MS/MS, as previously described ([58]).
# [5] = test system: T. cruzi CL Brener strain; assay: Bioluminescent mouse model of acute T. cruzi infection; type: in vivo, BALB/c mice; details: 50 mg/kg BID oral, 5 days, from 10 days post-infection, bioluminescence imaging
# Method: Female BALB/c mice (aged 6-7 weeks), purchased from Charles River (UK), were maintained under specific pathogen-free conditions in individually ventilated cages, with a 12 h light/dark cycle. They had access to food and water ad libitum. Mice were infected by intraperitoneal injection (i.p) of 1x10^3 bloodstream trypomastigotes derived from CB17 SCID mouse blood.
# Compounds were prepared in 5% (v/v) dimethyl sulfoxide /95% HPMC suspension vehicle (0.5% (w/v) hydroxypropyl methylcellulose, 0.5% (v/v) benzyl alcohol, 0.4% (v/v) Tween 80 in Milli-Q water). Mice were treated as outlined in Fig. 5, with compounds administered by oral gavage. At different days after infection, mice were injected with d-luciferin (150 mg/kg) i.p., anaesthetized using 2.5% (v/v) gaseous isoflurane and imaged using an IVIS Spectrum (Revvity, Hopkinton, MA, USA) 5-10 min later. To estimate parasite burden, mice ventral and dorsal regions of interest were drawn using Living Image 4.7.3 to quantify bioluminescence expressed as total flux (photons/second; p/s). Regions of interest data from infected and not-infected mice were used as controls. Exposure times varied between 30 sec and 5 min, depending on the signal intensity.
# Plasma protein binding = type: in vitro ADME; details: read-out: bound to plasma proteins (converted)
# Method: The propensity of DMU759 to bind to plasma proteins was determined as previously described ([21]).
# [6] = test system: T. cruzi epimastigote lysates; assay: Isothermal proteome profiling (iTPP), other hit proteins; type: binding; details: 10× EC50, 48°C
# Method: (§1) T. cruzi epimastigote lysates were generated as previously described ([29]). Isothermal TPP assays were performed as previously described ([25]). […] Data processing and analyses were performed as previously described ([25]), except proteins were identified via searches against the T. cruzi Dm28C proteome (tritrypdb.org, version 49).
# [7] = test system: Lysyl-tRNA synthetase 1 (KRS1); assay: Isothermal proteome profiling (iTPP), TcKRS1; type: binding, T. cruzi; details: KRS1 (C4B63_45g239); lysate, compound at 10× EC50, 48°C
# Method: as §1
# CYP2D6 = CYP2D6 (Homo sapiens, UniProt P10635); assay: In vitro CYP inhibition, 2D6; type: in vitro ADME
# Chain of CYP2D6 (P10635 whole entry, canonical isoform): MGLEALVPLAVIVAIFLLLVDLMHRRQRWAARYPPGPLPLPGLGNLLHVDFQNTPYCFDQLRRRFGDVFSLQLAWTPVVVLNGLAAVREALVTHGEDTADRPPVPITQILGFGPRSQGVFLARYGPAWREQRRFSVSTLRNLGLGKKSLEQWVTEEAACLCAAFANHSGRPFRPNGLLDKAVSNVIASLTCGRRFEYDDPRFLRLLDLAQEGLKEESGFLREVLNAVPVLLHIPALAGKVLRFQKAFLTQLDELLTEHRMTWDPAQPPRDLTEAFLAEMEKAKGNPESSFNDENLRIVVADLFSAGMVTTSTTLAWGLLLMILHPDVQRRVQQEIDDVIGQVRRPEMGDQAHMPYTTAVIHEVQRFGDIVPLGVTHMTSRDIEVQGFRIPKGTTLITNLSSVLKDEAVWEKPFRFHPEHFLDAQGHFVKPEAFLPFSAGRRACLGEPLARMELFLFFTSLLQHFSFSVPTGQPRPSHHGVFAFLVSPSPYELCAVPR
# Method: (§2) Compounds were screened for CYP inhibition activity using the protocol established by TCG Lifesciences (India). The activity of five CYP450 isoforms: 1A2; 2C9; 2D6, 3A4; and 2C19 was monitored in the presence of test or control (miconazole) compounds at 10 µM. Reactions were terminated after 10 min (30 min for CYP2C19) by the addition of acetonitrile, centrifuged and analysed via LC-MS/MS. […]
# CYP3A4 = CYP3A4 (Homo sapiens, UniProt P08684); assay: In vitro CYP inhibition, 3A4; type: in vitro ADME
# Chain of CYP3A4 (P08684 whole entry): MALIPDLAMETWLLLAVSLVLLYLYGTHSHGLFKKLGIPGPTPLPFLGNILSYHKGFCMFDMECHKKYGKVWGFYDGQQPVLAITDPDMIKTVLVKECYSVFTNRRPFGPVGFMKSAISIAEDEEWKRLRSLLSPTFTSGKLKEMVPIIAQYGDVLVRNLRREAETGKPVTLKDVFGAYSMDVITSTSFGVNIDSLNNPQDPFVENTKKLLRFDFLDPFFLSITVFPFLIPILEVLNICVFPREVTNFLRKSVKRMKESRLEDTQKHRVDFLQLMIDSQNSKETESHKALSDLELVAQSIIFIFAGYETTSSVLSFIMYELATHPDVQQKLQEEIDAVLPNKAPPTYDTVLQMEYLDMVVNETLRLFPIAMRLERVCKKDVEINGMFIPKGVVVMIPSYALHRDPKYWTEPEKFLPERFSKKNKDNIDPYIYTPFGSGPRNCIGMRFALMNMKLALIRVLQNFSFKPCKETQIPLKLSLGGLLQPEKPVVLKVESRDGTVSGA
# Method: as §2
# [8] = read-out: EC50 value, KRS1 OE, intracellular amastigote in Vero cells
# [9] = read-out: EC50 value, KRS1 S319L, intracellular amastigote in Vero cells
# [10] = read-out: EC50 value, WT, intracellular amastigote in Vero cells
# [11] = KRS1 OE, BSF, read-out: EC50 value
# [12] = read-out: EC50 value, KRS1 S319L (as printed in Table S1), BSF
# [13] = 19S proteasome regulatory subunit (C4B63_14g170)
# [14] = Conserved hypothetical protein (C4B63_42g251)
# [15] = Mitochondrial processing peptidase, beta subunit (C4B63_3g1101)
# [16] = Ribosomal protein S26 (C4B63_6g2300)
# [17] = cysteine peptidase, Clan CA, family C2 (C4B63_22g162)
compound,measurement,setting,value
"Cc1nc(N)c2c(F)c(F)c(NC3CCCC3)c(F)c2n1 [DMU371, N7-Cyclopentyl-5,6,8-trifluoro-2-methylquinazoline-4,7-diamine]",EC50,[1]; [8],888 ± 117 nM
same,EC50,[1]; [9],589 ± 57 nM
same,EC50,[1]; [10],205 ± 24 nM
same,EC50,T. b. brucei BSF; [11],4250 ± 170 nM
same,EC50,"T. b. brucei BSF; WT, BSF, read-out: EC50 value",607 ± 9 nM
same,EC50,T. b. brucei BSF; [12],1870 ± 71 nM
same,EC50,[2],5320 ± 2780 nM
same,EC50,"HepG2; Homo sapiens, HepG2, read-out: EC50 value",5820 ± 500 nM
same,EC50,T. b. rhodesiense,1090 ± 420 nM
same,Mouse liver microsome stability,[3],> 500 µL/min/mg
"Cc1nc(N)c2c(F)c(F)c(SC3CCCCC3)c(F)c2n1 [DMU759, 7-(Cyclohexylthio)-5,6,8-trifluoro-2-methylquinazolin-4-amine]",free blood concentration versus EC99,"[4]; corrected for plasma protein binding, in words",did not exceed the established EC99
same,time of peak blood concentration,[4]; post dosing,one
same,time total blood concentrations exceeded EC99,[4]; post dosing,up to 4 hours
same,reduction of parasite burden (parasitemia),[5],up to 81%
same,fraction unbound,Plasma protein binding,0.11
same,Fold-shift (relative to WT),[1]; KRS1 OE,8 fold
same,Fold-shift (relative to WT),[1]; KRS1 S319L,97 fold
same,EC50,[1]; [8],121 ± 19 nM
same,EC50,[1]; [9],1540 ± 130 nM
same,EC50,[1]; [10],16 ± 1 nM
same,Abundance Log2 fold change Rep 1,[6]; [13],-2.64
same,Abundance Log2 fold change Rep 2,[6]; [13],-3.79
same,Abundance Log2 fold change Rep 1,[6]; [14],-2.25
same,Abundance Log2 fold change Rep 2,[6]; [14],-1.75
same,Abundance Log2 fold change Rep 1,[6]; [15],-2.04
same,Abundance Log2 fold change Rep 2,[6]; [15],-2.35
same,Abundance Log2 fold change Rep 1,[6]; P-type H+-ATPase (C4B63_116g3),-2.27
same,Abundance Log2 fold change Rep 2,[6]; P-type H+-ATPase (C4B63_116g3),-1.74
same,Abundance Log2 fold change Rep 1,[6]; [16],-1.59
same,Abundance Log2 fold change Rep 2,[6]; [16],-1.80
same,Abundance Log2 fold change Rep 1,[6]; [17],-1.58
same,Abundance Log2 fold change Rep 2,[6]; [17],-2.80
same,Fold-shift (relative to WT),"T. b. brucei BSF; KRS1 OE, BSF",9 fold
same,Fold-shift (relative to WT),"T. b. brucei BSF; KRS1 serine-to-leucine mutant (S323L; printed S319L in Table S1), BSF",58 fold
same,EC50,T. b. brucei BSF; [11],1060 ± 33 nM
same,EC50,"T. b. brucei BSF; WT, BSF, read-out: EC50 value",112 ± 0.8 nM
same,EC50,T. b. brucei BSF; [12],6480 ± 360 nM
same,EC50,[2],284 ± 20 nM
same,EC50,"HepG2; Homo sapiens, HepG2; read-out: EC50 value",16900 ± 5380 nM
same,EC50,"T. b. rhodesiense; WT, BSF",313 ± 183 nM
same,Mouse liver microsome stability,[3],> 500 µL/min/mg
same,Abundance Log2 fold change Rep 1,[7],2.26
same,Abundance Log2 fold change Rep 2,[7],1.94
same,"inhibition at 10 min, 10 µM",CYP2D6,14.5 ± 2.5%
same,"inhibition at 10 min, 10 µM",CYP3A4,0%

# — paper PMC7617978, “Anti-trypanosomal quinazolines targeting lysyl-tRNA synthetases show partial efficacy in a mouse model of acute Chagas disease” (Science translational medicine, 2025)
